Test results: the Kinase Knowledgebase extract (Sharma et al. 2016)
In brackets after ≈: the same amount, converted by molar mass.

Experiments:
EGFR (human) [1] = target: EGFR (human) (UniProt P00533); details: sk-br-3
EGFR (human) [2] = target: EGFR (human) (UniProt P00533); details: mda-mb-435
EGFR (human) [3] = target: EGFR (human) (UniProt P00533); details: a431
EGFR (human) [4] = target: EGFR (human) (UniProt P00533); details: 3t3
EGFR (human) [5] = target: EGFR (human) (UniProt P00533); details: sw 620
EGFR = EGFR (UniProt P00533); details: for inhibition: concentration not given here
Chain of EGFR (P00533 whole entry, looked up): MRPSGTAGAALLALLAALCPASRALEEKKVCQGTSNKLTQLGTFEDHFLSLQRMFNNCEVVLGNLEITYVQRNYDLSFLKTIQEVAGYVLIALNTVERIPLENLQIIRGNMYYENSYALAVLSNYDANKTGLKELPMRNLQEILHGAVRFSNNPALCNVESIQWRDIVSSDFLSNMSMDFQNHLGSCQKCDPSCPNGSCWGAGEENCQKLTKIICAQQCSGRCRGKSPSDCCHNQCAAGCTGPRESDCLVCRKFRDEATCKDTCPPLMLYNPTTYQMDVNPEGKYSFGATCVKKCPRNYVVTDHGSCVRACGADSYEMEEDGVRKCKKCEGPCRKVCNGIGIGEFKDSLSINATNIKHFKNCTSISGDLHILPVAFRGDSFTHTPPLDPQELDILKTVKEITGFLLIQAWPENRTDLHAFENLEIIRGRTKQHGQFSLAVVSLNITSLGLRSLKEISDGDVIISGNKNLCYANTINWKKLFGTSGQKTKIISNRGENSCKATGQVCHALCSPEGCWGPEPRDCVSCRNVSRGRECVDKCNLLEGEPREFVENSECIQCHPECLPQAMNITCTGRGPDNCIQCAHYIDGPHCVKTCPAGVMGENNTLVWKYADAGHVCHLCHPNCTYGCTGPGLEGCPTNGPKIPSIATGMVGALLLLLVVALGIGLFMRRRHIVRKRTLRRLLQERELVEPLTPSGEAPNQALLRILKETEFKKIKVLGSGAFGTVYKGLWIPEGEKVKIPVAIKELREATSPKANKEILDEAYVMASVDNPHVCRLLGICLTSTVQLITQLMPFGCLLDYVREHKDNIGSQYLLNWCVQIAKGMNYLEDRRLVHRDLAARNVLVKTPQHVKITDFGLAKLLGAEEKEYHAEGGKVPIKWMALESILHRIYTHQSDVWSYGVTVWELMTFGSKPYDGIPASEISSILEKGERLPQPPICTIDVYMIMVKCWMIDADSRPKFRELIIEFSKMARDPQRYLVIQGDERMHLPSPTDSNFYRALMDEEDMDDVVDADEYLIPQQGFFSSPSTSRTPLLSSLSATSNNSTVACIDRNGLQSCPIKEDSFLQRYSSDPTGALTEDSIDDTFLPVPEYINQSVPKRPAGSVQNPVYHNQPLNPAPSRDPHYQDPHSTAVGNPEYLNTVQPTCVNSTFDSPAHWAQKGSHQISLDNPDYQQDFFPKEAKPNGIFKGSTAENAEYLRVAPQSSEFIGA

EGFR (human) [6] = target: EGFR (human) (UniProt P00533); details: a2780
EGFR (human) [7] = target: EGFR (human) (UniProt P00533); details: ddp

Chain of EGFR (human) (P00533 whole entry, looked up): as above

For `CCOc1cc2ncc(C#N)c(Nc3ccc4[nH]c(=O)oc(=O)c4c3)c2cc1OCC`, the IC50 (EGFR (human) [1]) was over 5 µg/mL, the IC50 (EGFR (human) [2]) was over 5 µg/mL and the IC50 (EGFR (human) [3]) was over 5 µg/mL. It also gave an IC50 (EGFR (human) [4]) of over 5 µg/mL and an IC50 (EGFR (human) [5]) of 2.92 µg/mL (≈ 6.98 µM).
For `CCOc1cc2ncc(C#N)c(Nc3ccc4c(c3)NCC4)c2cc1OCC`, the IC50 (EGFR) was over 10000 nM and the inhibition (EGFR) was 6%.
Work on `CCOc1cc2ncc(C#N)c(Nc3ccc4c(c3)C(=O)OC4)c2cc1OCC` yielded an IC50 (EGFR (human) [1]) of over 5 µg/mL, an IC50 (EGFR (human) [2]) of 3.4 µg/mL (≈ 8.74 µM) and an IC50 (EGFR (human) [3]) of over 5 µg/mL. For the same molecule, the IC50 (EGFR (human) [5]) was 1.56 µg/mL (≈ 4.02 µM).
In the case of `CCOc1cc2ncc(C#N)c(Nc3ccc4c[nH]nc4c3)c2cc1OC`, the IC50 (EGFR (human) [1]) is reported as 0.022 µg/mL (≈ 0.0612 µM), the IC50 (EGFR (human) [2]) is reported as 0.0359 µg/mL (≈ 0.0999 µM) and the IC50 (EGFR (human) [5]) is reported as 0.0212 µg/mL (≈ 0.059 µM).
`CCOc1cc2ncc(C#N)c(Nc3ccc4c(c3)CCC4)c2cc1OCC` showed an IC50 (EGFR (human) [1]) of over 0.294 µg/mL, an IC50 (EGFR (human) [2]) of 0.352 µg/mL (≈ 0.943 µM) and an IC50 (EGFR (human) [4]) of 0.525 µg/mL (≈ 1.41 µM). The IC50 (EGFR (human) [5]) was under 0.0005 µg/mL.
Work on `CCOc1cc2ncc(C#N)c(Nc3ccc4c(C)cc(=O)oc4c3)c2cc1OCC` yielded an IC50 (EGFR (human) [1]) of 0.429 µg/mL (≈ 1.03 µM), an IC50 (EGFR (human) [6]) of 0.27 µg/mL (≈ 0.65 µM) and an IC50 (EGFR (human) [3]) of 0.369 µg/mL (≈ 0.888 µM). For the same molecule, the IC50 (EGFR (human) [7]) was 0.249 µg/mL (≈ 0.599 µM) and the IC50 (EGFR (human) [5]) was 0.325 µg/mL (≈ 0.782 µM).
`COc1cc2ncc(C#N)c(Nc3ccc(O)c4ncccc34)c2cc1OC` gave an inhibition (EGFR) of 0%.
`CCOc1cc2ncc(C#N)c(Nc3ccc4c(c3)CCC4=O)c2cc1OCC` showed an IC50 (EGFR (human) [1]) of 0.0281 µg/mL (≈ 0.0725 µM), an IC50 (EGFR (human) [2]) of 0.028 µg/mL (≈ 0.0723 µM) and an IC50 (EGFR (human) [3]) of 0.0244 µg/mL (≈ 0.063 µM). It also gave an IC50 (EGFR (human) [4]) of 0.0923 µg/mL (≈ 0.238 µM).
In the case of `COc1cc2c(Nc3ccc4cn[nH]c4c3)c(C#N)cnc2cc1OCCN(C)C`, the inhibition (EGFR) is reported as 0%.
In the case of `COc1cc2ncc(C#N)c(Nc3ccc4[nH]ccc4c3)c2cc1OC`, the IC50 (EGFR) is reported as 1.5 to 4 nM.
Work on `CCOc1cc2ncc(C#N)c(Nc3ccc4c(c3)S(=O)(=O)C=C4)c2cc1OCC` yielded an IC50 (EGFR (human) [1]) of 0.336 µg/mL (≈ 0.797 µM), an IC50 (EGFR (human) [2]) of 0.0033 µg/mL (≈ 0.00783 µM) and an IC50 (EGFR (human) [4]) of 0.392 µg/mL (≈ 0.93 µM). For the same molecule, the IC50 (EGFR (human) [5]) was 0.146 µg/mL (≈ 0.346 µM).
In the case of `CCOc1cc2ncc(C#N)c(Nc3ccc4cc[nH]c4c3)c2cc1OCC`, the IC50 (EGFR (human) [1]) is reported as 0.0374 to 0.18 µg/mL (≈ 0.1 to 0.483 µM), the IC50 (EGFR (human) [2]) is reported as 0.073 to 0.365 µg/mL (≈ 0.196 to 0.98 µM) and the IC50 (EGFR (human) [6]) is reported as 0.231 µg/mL (≈ 0.62 µM). It also gave an IC50 (EGFR (human) [3]) of 0.123 to 0.216 µg/mL (≈ 0.33 to 0.58 µM), an IC50 (EGFR (human) [7]) of 0.313 µg/mL (≈ 0.84 µM) and an IC50 (EGFR (human) [5]) of 0.286 to 0.326 µg/mL (≈ 0.768 to 0.875 µM).
Work on `COc1cc2ncc(C#N)c(Nc3ccc4[nH]c(=O)sc4c3)c2cc1OC` yielded an inhibition (EGFR) of 0%.
`COCCOc1cc2ncc(C#N)c(Nc3ccc4cn[nH]c4c3)c2cc1OCCOC` was tested, and the IC50 (EGFR (human) [1]) was over 5 µg/mL, the IC50 (EGFR (human) [2]) was 2.04 µg/mL (≈ 4.72 µM) and the IC50 (EGFR (human) [4]) was over 5 µg/mL. The IC50 (EGFR (human) [5]) was over 5 µg/mL.
For `Cn1ccnc1Sc1ccc(Nc2c(C#N)cnc3ccc(/C=C/C(N)=O)cc23)cc1Cl`, the IC50 (EGFR) was 10 nM.
`CCOc1cc2c(Nc3ccc4cn[nH]c4c3)c(C#N)cnc2cc1OC` was tested, and the IC50 (EGFR (human) [1]) was 2.09 µg/mL (≈ 5.83 µM), the IC50 (EGFR (human) [2]) was 2.63 µg/mL (≈ 7.31 µM) and the IC50 (EGFR (human) [4]) was 3.22 µg/mL (≈ 8.96 µM). For the same molecule, the IC50 (EGFR (human) [5]) was 4.31 µg/mL (≈ 12 µM).
With `CCOc1cc2ncc(C#N)c(Nc3ccc4c(=O)[nH][nH]c(=O)c4c3)c2cc1OCC` the IC50 (EGFR (human) [1]) was over 5 µg/mL, the IC50 (EGFR (human) [2]) was over 5 µg/mL and the IC50 (EGFR (human) [3]) was over 5 µg/mL. For the same molecule, the IC50 (EGFR (human) [4]) was over 5 µg/mL and the IC50 (EGFR (human) [5]) was over 5 µg/mL.
`COc1cc2ncc(C#N)c(Nc3ccc4[nH]ncc4c3)c2cc1OC` gave an inhibition (EGFR) of 0%.
`CCOc1cc2ncc(C#N)c(Nc3ccc4cn[nH]c4c3)c2cc1OCC` was tested, and the IC50 (EGFR (human) [1]) was 0.016 µg/mL (≈ 0.0428 µM), the IC50 (EGFR (human) [2]) was 0.02 µg/mL (≈ 0.0536 µM) and the IC50 (EGFR (human) [6]) was 0.032 µg/mL (≈ 0.0857 µM). For the same molecule, the IC50 (EGFR (human) [3]) was 0.025 µg/mL (≈ 0.0669 µM), the IC50 (EGFR (human) [7]) was 0.036 µg/mL (≈ 0.0964 µM) and the IC50 (EGFR (human) [5]) was 0.033 µg/mL (≈ 0.0884 µM).
For `COc1cc2ncc(C#N)c(Nc3cccc4ncccc34)c2cc1OC`, the inhibition (EGFR) was 0%.
`CCOc1cc2ncc(C#N)c(Nc3ccc4c(c3)C(=O)NCC(=O)N4C)c2cc1OCC` gave an IC50 (EGFR (human) [1]) of over 5 µg/mL, an IC50 (EGFR (human) [2]) of over 5 µg/mL and an IC50 (EGFR (human) [3]) of over 5 µg/mL. For the same molecule, the IC50 (EGFR (human) [5]) was over 5 µg/mL.
Molecule `CCOc1cc2ncc(C#N)c(Nc3ccc4c(c3)OCCO4)c2cc1OCC` has an IC50 (EGFR (human) [1]) of 0.281 µg/mL (≈ 0.718 µM), an IC50 (EGFR (human) [2]) of 0.235 µg/mL (≈ 0.6 µM) and an IC50 (EGFR (human) [4]) of 0.853 µg/mL (≈ 2.18 µM). The IC50 (EGFR (human) [5]) was 0.411 µg/mL (≈ 1.05 µM).
`COc1cc2ncc(C#N)c(Nc3cccc4cnccc34)c2cc1OC` gave an inhibition (EGFR) of 0%.
